{"source": "patent US5455044A", "about": "“Method for treating neurological disorders” (priority 1993, dated 1995)", "assay": "Effect of concurrent oral dexamethasone administration on DTC 101 toxicity", "data": [{"smiles": "C[C@@H]1C[C@H]2[C@@H]3CCC4=CC(=O)C=C[C@]4(C)[C@@]3(F)[C@@H](O)C[C@]2(C)[C@@]1(O)C(=O)CO", "note": "[dexamethasone]", "values": [{"measurement": "effect on toxicities associated with DTC 101", "setting": "oral, 2 to 4 mg twice per day", "value": "major effect on blunting toxicities associated with DTC 101"}, {"measurement": "DTC 101 toxicity with concurrent oral dexamethasone", "setting": "three patients, same dose of DTC 101 with and without dexamethasone", "value": "almost completely suppressed"}]}]}
